Source: patent US8268856B2, “Method to use compositions having antidepressant anxiolytic and other neurological activity and compositions of matter” (priority 2007, dated 2012)

Key:
HIV-1 = assay: Activity against HIV-1
[1] = system: Mycobacterium tuberculosis; assay: Activity against Mycobacterium tuberculosis
male Swiss Webster mice [2] = assay: Locomotor activity test, Swiss Webster mice; type: in vivo, mouse; conditions: IP, photobeam interruptions, versus vehicle
Method: (§1) Locomotor Activity and the FST. To evaluate the isolated compounds for antidepressant-like activity, male Swiss Webster mice (Harlan, Indianapolis, Ind.) (25-30 g weight) were used. Animals were housed in groups of five with a 12 h light/12 h dark cycle. Food and water were provided at libitum. All procedures involving animals were performed as approved by the Institutional Animal Care and Use Committee of the University of Mississippi. Animals were randomly divided into groups (n=6-10/group). Each group was injected IP with either the compound (1-20 mg/kg), desipramine (20 mg/kg), or vehicle (saline, 10% ethanol or 10% ethanol/1% DMSO). Following injection, locomotor activity was monitored using an automated activity monitoring system (San Diego Instruments, San Diego, Calif.). Each mouse was placed in a Plexiglas enclosure and locomotor activity was recorded as the number of photobeam interruptions for 30 min after drug injection. The activity for the last ten min was quantified and analyzed. Immediately at the end of the locomotor session, individual mice were subjected to the FST. The mice were individually placed in a clear plastic cylinder (23 cm high, 10 cm internal diameter) filled with deionized water (8 cm high) at 25° C. The mice were recorded with a video camera (positioned at about 30 cm above the cylinder) for a total of 6 min. The total period of immobility during the last 4 min was timed by three independent observers. The mean immobility time was then calculated. A mouse was judged to be immobile when it remained afloat, making only minimal movements to keep its head above water.
Effect of select compounds on locomotor activity. Since reductions in immobility time is the primary criterion to assess antidepressant like activity in both the FST and TST, it is crucial to confirm that the effects observed in both tests are not attributed to specific stimulant action of the tested compounds, which would be reflected as enhancement of the locomotor activity. Accordingly, the effect of tested compounds on locomotor activity was evaluated using an automated activity monitoring system.

male Swiss Webster mice [3] = assay: Porsolt forced swim test (FST); type: in vivo, mouse; conditions: male Swiss Webster mice, IP, immobility during last 4 min of 6 min swim, versus vehicle
Method: as §1
For the FST, immobility times of the three independent rates were averaged for each mouse and data were analyzed using one way analysis of variance (ANOVA) followed by Bonferroni Multiple comparison posthoc tests to determine statistical differences from the corresponding vehicle control. Chick distress vocalization data were analyzed by two-way repeated measures ANOVA, one-way ANOVA and simple effects analyses with post-hoc comparisons conducted using Fisher's LSD test. p-Values less than 0.05 were considered statistically significant.
(§2) Porsolt R D, et al. Behavioral Despair In Mice: A Primary Screening Test for Antidepressants, 229 Arch. Int. Pharmacodyn. 327-36 (1977). […] In order to control for false positives, as has been previously observed with psychostimulants, Cryan, J., et al. Assessing Substrates Underlying The Behavioral Effects Of Antidepressants Using The Modified Rat Forced Swimming Test. 29 Neurosci Biobehav Rev. 547-69 (2005) locomotor activity of the animals was monitored using an automated photobeam activity monitoring system. Lucki. I. The Forced Swimming Test As A Model For Core And Component Behavioral Effects Of Antidepressant Drugs. 8 Behav. Pharmacol. 522-32 (1997).

HCV = assay: Activity against HCV
serotonin receptors = assay: Affinity to serotonin receptors (receptor binding panel); parameters: species or system human or rodent
Method: Evaluation of binding affinity of isolated compounds to serotonin receptors. In vitro testing of isolated compounds was completed using a small panel of receptor binding assays and then validated in a comprehensive panel by the NIMH Psychoactive Drug Screening Program. Pharmacological and functional screening of isolated molecules was performed on cloned human or rodent CNS receptors, channels, and transporters. Hu, J-F., et al. New Antiinfective and Human 5-HT2 Receptor Binding Natural and Semisynthetic Compounds from the Jamaican Sponge Smenospongia aurea. 65 Jour. of Nat. Prod. 476-80 (2002).
as §2

Cc1nccc2c1C(C)(C)Nc1cc(Br)ccc1-2 [Veranamine, 8-bromo-4,5,5-trimethyl-5,6-dihydrobenzo[c][2,7]naphthyridine]
activity against HIV-1 (HIV-1): not active | activity against Mycobacterium tuberculosis [1]: not active | effect on locomotor activity (male Swiss Webster mice [2]): not the consequence of its stimulant activity | antidepressant-like activity / effect on immobility time in FST (male Swiss Webster mice [3]): potent antidepressant activity at the dose of 20 mg/kg | activity against HCV (HCV): not active | affinities to serotonin receptors (serotonin receptors): moderate affinities
